Results taken from patent publication US20030022864A1, “9-[(5-dihydroxyboryl)-pentyl] purines, useful as an inhibitor of inflammatory cytokines” (priority 2001, published 2003).
Values belong to the compound of their own block, whether it stands above or below them.

Assays:
[1] = test system: rats with permanent occlusion of the middle cerebral artery; details: systemic administration, 10 mg/kg 1 hour post ischemia; compared with vehicle controls; cited from earlier work
[2] = test system: TNF-α production by human monocytes; assay: Assay for inhibition of TNF-α production by human monocytes; assay type: cell-based; details: 100 ng/ml LPS, 16 hours, ELISA, read-out: IC50 Against TNF-α
Procedure: Assay for inhibition of TNF-α production by human monocytes
Monocytes were prepared by centrifugal counterflow elutriation from PBMC obtained from leukophoresis of normal volunteers (leukopaks) at the Phoresis laboratory located at Duke University Hospital, Durham, N.C., United States of America. PBMC from leukopaks were diluted in sterile isotonic saline/10 mM HEPES (N-[2-Hydroxyethyl]piperazine-N′-[2-ethanesulfonic acid]), the name of a buffer used in biological and protein chemistry) and placed into 50 ml conical polypropylene tubes in 30 ml aliquots. Each aliquot of diluted PBMC is underlaid with 20-25 ml of sterile lymphocyte separation medium (LSM; Organon-Technika, Durham, N.C., United States of America). The tubes were centrifuged at 400× gravity for 40 minutes at room temperature. The mononuclear cells at the interface were resuspended in phosphate buffered saline (PBS) and then separated, using a Beckman elutriator, into lymphocytes and monocytes. Yields of 10^9 monocytes with greater than 90% purity were routinely obtained.
Purified monocytes prepared as described above were suspended at 4×10^6 cells/ml in complete medium. Complete medium is defined as follows: RPMI-1640 supplemented with 100 U/ml penicillin; 100 μg/ml streptomycin; 2 mM L-glutamine; 1 mM Na pyruvate; 1% MEM non-essential amino acids; 25 mM HEPES (all from GIBCO, Gaithersburg, Md., United States of America); and 5% pooled, heat-inactivated (56° C., 30 minutes) human serum from type AB blood (Pel-Freez, Brown Deer, Wis., United States of America). To each well of a 48-well flat bottomed tissue culture plate was added 0.125 ml of cell suspension. Test materials (diluted in complete medium at 2× the desired final concentration) were added in […] to each well. Control wells received 250 μl of complete medium. All samples were tested at a minimum of 4 concentrations in the presence or absence of 100 ng/ml LPS (S. typhosa; Sigma, St. Louis, Mo., United States of America; 125 μl of 4× desired final concentration added) and incubated at 37° C. in humidified 5% CO2 for 16 hours. At this time, culture supernatants were aspirated off and the unattached cells and cell debris removed by a 2 minute spin in a microcentrifuge at 10,000× gravity. The release of TNF-α was determined in the cell-free supernatants using an ELISA capture assay.

[3] = test system: TNF-α production by murine macrophage cell line J774.1; assay: Inhibition of TNF-α production by a murine macrophage cell line (J774.1); assay type: cell-based; details: FIG. 1; read-out: IC50, production of TNF-α by cultured murine macrophage cell line
Procedure: (§1) Assay for inhibition of TNF-α or nitric oxide (NO) by a murine macrophage cell line
(§2) Murine macrophage cell line J774.1 cells were maintained by culture at 37° C. in 5% humidified CO2 in media that was […] (DMEM) supplemented with 100 U/ml penicillin; 100 μg/ml streptomycin; 2 mM L-glutamine; 1 mM Na pyruvate; 1% MEM non-essential amino acids; 25 mM HEPES (all from GIBCO, Gaithersburg, Md., United States of America); and 10% pooled, heat-inactivated (56° C., 30 minutes) fetal bovine serum (FBS; GIBCO). For assays of TNF-α and nitric oxide production, cells were cultured at 1×10^5 cells/well in 96-well tissue culture plates. Test compound was prepared as a stock solution in DMSO and added to each well to give the desired final concentration. DMSO was added to control wells to serve as a vehicle control. Each concentration of test material or vehicle control was tested in replicates of 4 wells. After a 1 hour exposure to test material, a stimulus (either SAK2 stimulatory oligonucleotide [10 μg] or LPS [10 ng/ml]+IFNγ[100 u/ml]) was added to each well, and the plates incubated for 48 hours at 37° C. in 5% humidified CO2. […] Content of nitrite/nitrate in J774.1 cell culture supernatants was expressed as μM.

[4] = test system: nitric oxide production by murine macrophage cell line J774.1; assay: Nitric oxide production by a murine macrophage cell line (J774.1), nitrate/nitrite by Griess reagent; assay type: cell-based; details: FIG. 2
Procedure: as §1, §2

mRNA encoding for CCR1 = assay: Expression of C-C chemokine receptor mRNA in normal human PBMC by RT-PCR: CCR1; assay type: cell-based; details: FIG. 6
Procedure: (§3) The ability of LMP-420 to affect the expression of C-C chemokine receptors on normal human PBMC was tested as illustrated in FIG. 6. […] There was no effect on CCR4, the only other C-C chemokine receptor whose mRNA could be detected in these unstimulated human PBMC. Also, there was no effect on the mRNA for GAPDH which is used as a “housekeeping gene” to verify that equal amounts of mRNA are being reversed transcribed for the analysis. Thus, the ability of LMP-420 to inhibit the expression of CCR1 might contribute to antiinflammatory properties of LMP-420, as well as its ability to inhibit HIV-1 replication.

CCR4 mRNA = assay: Expression of C-C chemokine receptor mRNA in normal human PBMC by RT-PCR: CCR4; assay type: cell-based; details: unstimulated human PBMC, FIG. 6
Procedure: as §3

mRNA for GAPDH = assay: Housekeeping gene mRNA in normal human PBMC by RT-PCR: GAPDH; assay type: cell-based; details: FIG. 6
Procedure: as §3

[5] = 400 mg 3 times daily, 6 months; placebo 26.8%, p=0.04; cited from earlier work
[6] = target: T1, biologically-active TNF-α (Homo sapiens, UniProt P01375); details: heart failure patients; cited from earlier work
T1 construct: host or cells: serum of heart-failure patients

[7] = cited from earlier work
[8] = two weeks after a single infusion; cited from earlier work

T1 sequence (P01375 77-233 limits assumed): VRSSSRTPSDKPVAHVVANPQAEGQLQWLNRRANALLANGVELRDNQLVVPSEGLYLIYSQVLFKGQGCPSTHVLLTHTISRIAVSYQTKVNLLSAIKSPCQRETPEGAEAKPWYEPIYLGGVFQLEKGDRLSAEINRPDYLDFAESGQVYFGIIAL

Compound: C/C(=N\N=C(N)N)c1cc(NC(=O)CCCCCCCCC(=O)Nc2cc(/C(C)=N/N=C(N)N)cc(/C(C)=N/N=C(N)N)c2)cc(/C(C)=N/N=C(N)N)c1.Cl.Cl.Cl.Cl [CNI-1493]
reduced infarct volume [1]: 80%

IC50 [2]: > 50000 nM
Compound: Nc1nc(Cl)c2ncn(CCCCO)c2n1 [Comparison Compound 6]

IC50 [2]: > 20000 nM
Compound: Nc1nc(Cl)c2ncn(CCCC(=O)O)c2n1 [Comparison Compound 13]

IC50 [2]: > 20000 nM
Compound: CCOC(=O)CCCn1cnc2c(Cl)nc(N)nc21 [Comparison Compound 14]

IC50 [2]: 80 nM
Compound: Nc1nc(Cl)c2ncn(CCCCCB(O)O)c2n1 [LMP-420, 2-amino-6-chloro-9-[(5-dihydroxyboryl)-pentyl] purine]
IC50 [3]: ~1000 nM
effect on the production of nitric oxide as measured by the release of nitrate or nitrite [4]: no effect
expression of mRNA encoding for CCR1 (mRNA encoding for CCR1): dose-dependent inhibition
effect on CCR4 mRNA (CCR4 mRNA): no effect
effect on the mRNA for GAPDH (mRNA for GAPDH): no effect

Compound: CC(=O)CCCCn1c(=O)c2c(ncn2C)n(C)c1=O [Pentoxifylline]
left ventricular ejection fraction (LVEF) [5]: 38.7%

Compound: ENBREL
decrease in serum levels of biologically-active TNF-α [6]: 85%
patients who achieved the ARC20 ([7]; 12 weeks, placebo 13%): 73%
patients who met the PsARC ([7]; 12 weeks, placebo 23%): 87%
patients who achieved a 75% improvement in the PASI ([7]; 19 assessable patients per group, placebo 0, p=0.015): 26%
median target lesions (improvement) ([7]; placebo 0%): 50%
median PASI improvement ([7]; placebo 9%): 46%

Compound: REMICADE: humanized murine monoclonal antibody to TNF-α
patient's psoriasis [8]: dramatically cleared up
